Data set [1] relates to chloroquine-sensitive D6 strain of Plasmodium falciparum. In words: In vitro antiplasmodial activity, non-radioactive (fluorescence-based) assay. Format: cell-based. To be noted: for IC50: Plasmodium falciparum; for Antiplasmodial activity in words: D6 strain of Plasmodium falciparum. The method, then:
The pure compounds were assayed using a non-radioactive assay technique as described by […] al., 2004 [32] with modifications given in the literature.

Data set [2] is described as follows: MTT cytotoxicity assay, A549. It counts as cell-based. To be noted: human, A549 cells (adenocarcinomic alveolar basal epithelial cells), cancer cell. Here is the method:
(§1) A549, HepG2, and non-tumoral cells were all purchased from ATCC. Cells were cultured in RPMI 1640 medium supplemented with 10% fetal bovine serum and antibiotics penicillin (50 U/mL) and streptomycin (50 μg/mL; Invitrogen, Paisley, Scotland, UK). All cell cultures were incubated at 37 °C in a 5% humidified CO2 incubator. All tested compounds were dissolved in DMSO at a final concentration of 50 mmol/L and stored at −20 °C before use. Cytotoxicity was assessed by using the 3-(4,5-dimethylthiazol-2-yl)-2,5-diphenyltetrazolium bromide (MTT) (5.0 mg/mL) assay as previously described. Briefly, 4 × 10^3 cells per well were seeded in 96-well plates before drug treatments. After overnight culture, the cells were then exposed to different concentrations of selected compounds (0.039–100 μmol/L) for 72 h. Cells without drug treatment were used as the control. Subsequently, MTT (10 μL) solution was added to each well and incubated at 37 °C for 4 h followed by the addition of 100 μL solubilization buffer (10% SDS in 0.01 mol/L HCl) and overnight incubation. A570 nm was then determined in each well on the next day. The percentage of cell viability was calculated using the following formula: Cell viability (%) = Atreated/Acontrol × 100. Data were obtained from three independent experiments and the standard error was calculated.

Data set [3] in a line: MTT cytotoxicity assay, BEAS. Format: cell-based. Conditions: human, non-tumoral cell. The method, then: as §1
The nature of data set [4]: MTT cytotoxicity assay, HepG2. It counts as cell-based. Conditions: human, HepG2 cells (liver cancer cell line). Here is the method:
as §1

Data set [5] has as its system two non-tumoral and two cancerous cell-lines (LO2, BEAS, A549, HepG2). In words: MTT cytotoxicity, summary over the four cell-lines. Format: cell-based. The method, then:
as §1

Data set [6] in a line: MTT cytotoxicity, summary over the four cell-lines. It counts as cell-based. Conditions: human, two non-tumoral and two cancerous cell-lines; read-out: Cytotoxicity IC50 against four cell-lines. Here is the method:
as §1

The nature of data set [7]: MTT cytotoxicity assay, LO2. Format: cell-based. Conditions: human, LO2 cells (immortal hepatic cell line), non-tumoral cell. The method, then: as §1
[8] abbreviates: D6 strain, in vitro, read-out: Antiplasmodial activity against P. falciparum D6, IC50.

“Also recorded” adds a separate entry of the source. Where two headings read alike, the source gives them in different places.

In the case of `CCN(CC)CCCC(C)Nc1ccnc2cc(Cl)ccc12` (stereo not drawn) [Chloroquine, reference compound], the half-maximal inhibitory concentration (IC50) in data set [1] (D6, read-out: Antiplasmodial activity against P. falciparum D6, IC50) came out at 0.037 ± 0.003 µM.

`COc1cc(O)c2c(=O)cc(-c3ccccc3)oc2c1/C=C/C(C)(C)O` [Compound 1, (E)-5-hydroxy-8-(3-hydroxy-3-methylbut-1-en-1-yl)-7-methoxy-2-phenyl-4H-chromen-4-one]: the IC50 at 72 h in data set [2] is 76.1 ± 2.9 µM; in data set [3] it was 24.5 ± 2.7 µM; in data set [4], over 100 µM; in data set [6], 21 to 100 µM; in data set [7] it was 21.7 ± 4.8 µM. Further, in data set [1], the “Antiplasmodial activity in words” value is reported as “good activity; also recorded: the most active”. In addition, the IC50 was 1.7 ± 0.1 µM in data set [1] (setting [8]); over 21 µM in data set [5] (two non-tumoral and two cancerous cell-lines, read-out: Cytotoxicity IC50 against four cell-lines). Further, in data set [5] (cytotoxicity versus antiplasmodial activity (D6)), the Selectivity index is over 12.

`COc1cc(O)c2c(=O)cc(-c3ccccc3)oc2c1/C=C/C(C)=O` [Compound 2, (E)-5-hydroxy-7-methoxy-8-(3-oxobut-1-en-1-yl)-2-phenyl-4H-chromen-4-one]: the 50% inhibitory concentration (IC50) at 72 h in data set [2], in data set [3], in data set [4] and in data set [7] was over 100 µM each time.

With `COc1cc(OC(C)=O)c(C2COC(C)(C)C2=O)c2oc(-c3ccccc3)cc(=O)c12` (stereo not drawn) [Compound 4, 8-(5,5-dimethyl-4-oxotetrahydrofuran-3-yl)-5-methoxy-4-oxo-2-phenyl-4H-chromen-7-yl acetate], the melting point is 210 to 214 °C. Also, the IC50 at 72 h in data set [2] was over 100 µM. In data set [3], this compound had an IC50 at 72 h of over 100 µM. Also, the “Antiplasmodial activity in words” value in data set [1] was “low antiplasmodial activities”. In addition, in data set [1] (setting [8]), the IC50 was 14.8 ± 3.2 µM. In data set [4], this compound displayed a half-inhibitory concentration (IC50) at 72 h of over 100 µM. In data set [7], this compound yielded an IC50 at 72 h of over 100 µM.

For the compound `COc1cc(OC)c2c(=O)cc(-c3ccccc3)oc2c1C1=COC(C)(C)C1=O` [Compound 9, tachrosin], the IC50 at 72 h in data set [2], in data set [3], in data set [4] and in data set [7] was over 100 µM in each case. Moreover, in data set [1], the “Antiplasmodial activity in words” value is “low antiplasmodial activities”. In data set [1] (setting [8]), the concentration for half-maximal inhibition (IC50) was 27.1 ± 3.2 µM.

These data come from article PMC6151588, “Four Prenylflavone Derivatives with Antiplasmodial Activities from the Stem of Tephrosia purpurea subsp. leptostachya” (Molecules : A Journal of Synthetic Chemistry and Natural …, 2017).
